Reference: patent publication US20130231347A1, “METHOD OF TREATMENT WITH BRAF INHIBITOR” (GLAXOSMITHKLINE INTELLECTUAL PROPERTY (NO.2) LIMITED, priority 2010, published 2013)
Like-named read-outs stand apart in the source and are kept apart here.

Legend:
[1] = test system: 12R8-3 (A375 F11 clone with acquired resistance to Compound A); assay: Cell growth inhibition assay (Cell Titer Glo, 3 days); type: cell-based; settings: Homo sapiens, A-375, 72 h, 12R8-3: NRAS A146A/T, MEK1 WT, single agent, read-out: IC50, Single Agent Effect, Compound A
Procedure: (§3) A clonal isolate, hereinafter referred to as “A375 F11”, was obtained from the A375 cell line (obtained from ATCC), based on increased sensitivity to a BRAF inhibitor. A375 F11 cells were exposed to increasing concentrations of Compound A and maintained in a final concentration of 1.26 μM or 1.6 μM. 12R5-3, 12R8-1, 12R8-3, 16R5-5, 16R6-2, 16R6-3 and 16R6-4 were derived as single cell clones from mixed populations of these A375 F11 cells selected to grow in the presence of Compound A. All cells were grown in RPMI 1640 medium containing 10% Fetal Bovine Serum (FBS).
(§4) All cells were cultured without compound, e.g. Compound A, for a minimum of 72 hours prior to cell plating. Cells were assayed in a 96-well tissue culture plate (NUNC 136102) of RPMI medium containing 10% FBS for all cells at 1,000 cells per well. Approximately 24 hours after plating, cells were exposed to ten, three-fold serial dilutions of compound or the combination of the two agents at a constant molar to molar ratio, e.g. 10:1 Compound A to Compound B, in RPMI media containing 10% FBS. Cells were incubated in the presence of compounds for 3 days. ATP levels were determined by adding Cell Titer Glo® (Promega) according to the manufacturer's protocol. Briefly, Cell Titer Glo® was added each plate, incubated for 30 minutes then luminescent signal was read on the SpectraMax L plate reader with a 0.5 sec integration time. Inhibition of cell growth was estimated after treatment with compound or combination of compounds for three days and comparing the Cell Titer Glo® signal to cells treated with vehicle (DMSO). Cell growth was calculated relative to vehicle (DMSO) treated control wells.
(§5) For single agent and combination treatments, cells were exposed to compounds at a fixed-dose-ratio, and dose response curves were fit to the experimental data and analyzed using regression models.

[2] = test system: 16R6-3 (A375 F11 clone with acquired resistance to Compound A); assay: as above; type: cell-based; settings: Homo sapiens, A-375, 72 h, 16R6-3: NRAS A146A/T, MEK1 P387P/S, single agent, read-out: IC50, Single Agent Effect, Compound A
Procedure: as §3, §4, §5

[3] = test system: 16R5-5 (A375 F11 clone with acquired resistance to Compound A); assay: as above; type: cell-based; settings: Homo sapiens, A-375, 72 h, 16R5-5: NRAS Q61Q/K, MEK1 P387P/S, single agent, read-out: IC50, Single Agent Effect, Compound A
Procedure: as §3, §4, §5

[4] = test system: A375 F11 clones that acquired resistance to Compound A; assay: Cell growth inhibition assay, resistant A375 clones taken together; settings: Homo sapiens
Procedure: as §3, §4, §5

[5] = test system: 16R6-2 (A375 F11 clone with acquired resistance to Compound A); assay: Cell growth inhibition assay (Cell Titer Glo, 3 days); type: cell-based; settings: Homo sapiens, A-375, 72 h, 16R6-2: NRAS Q61Q/K, MEK1 P387P/S, single agent, read-out: IC50, Single Agent Effect, Compound A
Procedure: as §3, §4, §5

[6] = test system: A375 cells expressing MEK1F129L; assay: Proliferation of BacMAM-transduced A375 cells; type: cell-based; settings: Homo sapiens, A-375, read-out: IC50, inhibition of proliferation
Procedure: (§1) BacMAM constructs were generated using MEK1 cDNA and mutations in MEK1 were introduced using site directed mutagenesis. BacMAM virus particles were prepared as described in the supplemental methods. A375 cells were transduced with the indicated BacMAM virus. Forty-eight hours post transduction, cells were plated for subsequent proliferation and western blot analysis as described above.

[7] = test system: A375 cells expressing MEK1Q56P; assay: Proliferation of BacMAM-transduced A375 cells; type: cell-based; settings: Homo sapiens, A-375, read-out: IC50, inhibition of proliferation
Procedure: as §1

[8] = test system: A375 cells expressing MEK1K59del; assay: Proliferation of BacMAM-transduced A375 cells; type: cell-based; settings: Homo sapiens, A-375, read-out: IC50, inhibition of proliferation
Procedure: as §1

[9] = test system: A375 cells expressing MEK1P124L; assay: Proliferation of BacMAM-transduced A375 cells; type: cell-based; settings: Homo sapiens, A-375, read-out: IC50, inhibition of proliferation
Procedure: as §1

[10] = test system: A375 cells expressing MEK1C121S; assay: Proliferation of BacMAM-transduced A375 cells; type: cell-based; settings: Homo sapiens, A-375, read-out: IC50, inhibition of proliferation
Procedure: as §1

[11] = test system: A375 cells expressing wild-type MEK1; assay: Proliferation of BacMAM-transduced A375 cells; type: cell-based; settings: Homo sapiens, A-375, read-out: IC50, inhibition of proliferation
Procedure: as §1

[12] = test system: A375 cells, Mock; assay: Proliferation of BacMAM-transduced A375 cells; type: cell-based; settings: Homo sapiens, A-375, read-out: IC50, inhibition of proliferation
Procedure: as §1

[13] = test system: A375 F11 cells; assay: Cell growth inhibition assay (Cell Titer Glo, 3 days); type: cell-based; settings: Homo sapiens, 72 h, F11: NRAS WT, MEK1 WT, single agent, mean ± std, read-out: IC50, Single Agent Effect, Compound A
Procedure: as §3, §4, §5

[14] = test system: 16R6-4 (A375 F11 clone with acquired resistance to Compound A); assay: as above; type: cell-based; settings: Homo sapiens, A-375, 72 h, 16R6-4: NRAS Q61Q/K, A146A/T, MEK1 P387P/S, single agent, read-out: IC50, Single Agent Effect, Compound A
Procedure: as §3, §4, §5

[15] = test system: YUSIT1 clones that acquired resistance to Compound A (BRAF V600K); assay: Cell growth inhibition assay, resistant YUSIT1 clones; type: cell-based, human
Text: The YUSIT1 melanoma cells were obtained from Yale Dermatology Cell Culture Facility.

[16] = test system: 12R5-1 (A375 F11 clone with acquired resistance to Compound A); assay: Cell growth inhibition assay (Cell Titer Glo, 3 days); type: cell-based; settings: Homo sapiens, A-375, 72 h, 12R5-1: NRAS WT, MEK1 HET 59delK, single agent, read-out: IC50, Single Agent Effect, Compound A
Procedure: as §3, §4, §5

[17] = test system: 12R5-3 (A375 F11 clone with acquired resistance to Compound A); assay: as above; type: cell-based; settings: Homo sapiens, A-375, 72 h, 12R5-3: NRAS A146A/T, MEK1 WT, single agent, read-out: IC50, Single Agent Effect, Compound A
Procedure: as §3, §4, §5

[18] = test system: 12R5-5 (A375 F11 clone with acquired resistance to Compound A); assay: as above; type: cell-based; settings: Homo sapiens, A-375, 72 h, 12R5-5: NRAS WT, MEK1 HET 59delK, single agent, read-out: IC50, Single Agent Effect, Compound A
Procedure: as §3, §4, §5

[19] = test system: phosphorylation of MEK, ERK, S6P and cyclin D1 protein in A375 cells; assay: Western blot of signaling effects, parental cells; type: cell-based, human; settings: western blot (FIG. 10)
Text: (§2) Phospho-AKT (T308), phospho-AKT (S473), AKT, ERK, phospho-S6P (S235/236), S6P, cyclin D1, phospho-MEK1/2 (S217/S221), MEK1/2, MEK1, MEK2, and cleaved PARP antibodies were purchased from Cell Signaling. Primary antibodies to GAPDH, RAF-1, BRAF, and ARAF were purchased from Santa Cruz Biotechnology. Diphospho-ERK1/2 (T202/Y204) antibodies were purchased from Sigma and p27kip1 antibodies were purchased from Epitomics. Anti-Mouse IRDYE® 800CW antibody was purchased from LI-COR Biosciences. Anti-rabbit ALEXA FLUOR® 680 antibodies were purchased from Invitrogen. Compound A, Compound B, Compound C, and PLX4032 (20) were synthesized by GlaxoSmithKline Research Labs and the structures are shown in FIG. 7.

[20] = test system: 12R8-1 (A375 F11 clone with acquired resistance to Compound A); assay: Cell growth inhibition assay (Cell Titer Glo, 3 days); type: cell-based; settings: Homo sapiens, A-375, 72 h, 12R8-1: NRAS A146A/T, MEK1 WT, single agent, read-out: IC50, Single Agent Effect, Compound A
Procedure: as §3, §4, §5

[21] = test system: phosphorylation of MEK, ERK, S6P in A375 clones resistant to Compound A; assay: Western blot of signaling effects, resistant clones; type: cell-based, human; settings: western blot (FIG. 10)
Text: as §2

Which IC50 [1] does the source give for `CC(C)(C)c1nc(-c2cccc(NS(=O)(=O)c3c(F)cccc3F)c2F)c(-c2ccnc(N)n2)s1` [Compound A, N-{3-[5-(2-Amino-4-pyrimidinyl)-2-(1,1-dimethylethyl)-1,3-thiazol-4-yl]-2-fluorophenyl}-2,6-difluorobenzenesulfonamide] here?
Its IC50 is over 10000 nM.

And the IC50 [2]?
The IC50 was over 10000 nM.

What about the IC50 [3] of the same molecule?
Its IC50 is over 10000 nM.

And the IC50 ([4]; A-375, read-out: IC50, cell growth)?
Its IC50 is over 10000 nM.

What about the IC50 ([4]; A-375, read-out: IC50, cell growth inhibition, single agent) of the same molecule?
The IC50 was over 10000 nM.

What about the IC50 ([4]; A-375, read-out: IC50 of the combination, for Compound A) of the same molecule?
Its IC50 is 178 to 392 nM.

What about the IC50 [5] of the same molecule?
The IC50 was over 10000 nM.

And the IC50 [6]?
Its IC50 is 140 nM.

What about the IC50 [7] of the same molecule?
Its IC50 is at least 420 nM.

What about the IC50 [8] of the same molecule?
Its IC50 is 179 nM.

What about the IC50 [9] of the same molecule?
Its IC50 is 84 nM.

What about the IC50 [10] of the same molecule?
Its IC50 is at least 330 nM.

What about the IC50 [11] of the same molecule?
The IC50 was 28 nM.

What about the IC50 [12] of the same molecule?
The IC50 was 30 nM.

And the IC50 [13]?
The IC50 was 24 ± 17 nM.

What about the IC50 [14] of the same molecule?
Its IC50 is over 10000 nM.

What about the IC50 ([15]; Homo sapiens, read-out: IC50, cell growth inhibition) of the same molecule?
The IC50 was over 500 nM.

What about the “reduced sensitivity compared to the parental YUSIT1 cells” value ([15]; YUSIT1 clones resistant to Compound A, single agent (FIG. 9)) of the same molecule?
The value was at least 38 fold.

And the IC50 [16]?
Its IC50 is over 10000 nM.

And the IC50 [17]?
The IC50 was over 10000 nM.

And the IC50 [18]?
Its IC50 is over 10000 nM.

And the “decrease of cyclin D1 protein levels” value [19]?
Its value is “more than 65%”.

And the “inhibition of phosphorylation of MEK, ERK, and S6P” value [19]?
The value was “more than 75%”.

What about the IC50 [20] of the same molecule?
Its IC50 is over 10000 nM.

What about the “reduction of ERK phosphorylation” value [21] of the same molecule?
The value was “less than 50%”.

And the “reduction of S6P phosphorylation” value [21]?
The value was under 25%.
